In US11325908B2, “CaMKII inhibitors and uses thereof” (The Johns Hopkins University, priority 2014, dated 2022) one finds IC50 data, which are given here for four compounds.

Usually IC50 stands for the concentration that gives 50% inhibition.

This assay concerns the target CaMKIIδ (Homo sapiens (Human), UniProt Q13557). The assay is described as follows: In vitro CaMKIIδ activity assay (coupled assay measuring ADP released, AC3 peptide substrate). Type of assay: biochemical. To be noted: full length C-terminal His/Gln tagged CaMKIIδ construct, 16 nM enzyme, 25° C., compound 0.5 nM to 10 uM, duplicate. The procedure:
An exemplary procedure for the in vitro CaMKIIδ inhibition assay, which can be used to determine the inhibitory action of compounds of the invention toward CaMKII, follows. The procedure is taken from Chao L H, et al., (2010) Nat Struct Mol Biol. 17(3): 264-272, which is incorporated herein by reference in its entirety.
The inhibition of CaMKII activity was evaluated using a coupled assay measuring ADP released following ATP hydrolysis and phosphor-transfer to the peptide substrate AC3 (KKALHRQETVDAL; SEQ ID NO: 1) (1). A full length, C-terminal His/Gln tagged CaMKIIδ construct was used (sequence in Table 3 below).
Compounds were added in 5 uL volume to wells in UV transparent 96-well plates (1/2 area well size). The final compound concentrations tested ranged from 0.5 nM to 10 uM). Assays were performed in duplicate. CaMKIIδ is added to at a final concentration of 16 nM to a mixture containing 100 mM Tris (pH 7.5), 150 mM KCl, 0.27 mM EGTA, 1.3 mM PEP, 0.2 mg/ml AC3, 6.9% (v/v) PK/LDH mixture (Sigma P0294), 0.38 mM NADH and kept on ice. 72 uL of the enzyme mixture was added to the wells containing compounds and the plate was shaken briefly and kept on ice. The assay was initiated by adding 23 uL of a mixture containing 100 mM Tris (pH 7.5), 150 mM KCl, 1.7 mM CaCl2, 48 mM MgCl2, 0.35 mM ATP and 6.7 ug/mL calmodulin. The rate of ADP released was measured as the rate of absorbance decrease at […] at 25° C. and plotted against the log of the compound concentration (FIG. 1). IC50 data were fitted using GraphPad Prism software.
Regarding `c1cc(-c2ccnc3[nH]c4ccccc4c23)cc(N2CCNCC2)c1` [Compound I-1, 4-(3-(piperazin-1-yl)phenyl)-9H-pyrido[2,3-b]indole], the IC50 was 50 to 250 nM.
Turning to `Nc1cccc(-c2ccnc3[nH]c4ccccc4c23)c1` [Compound I-6], the concentration for half-maximal inhibition (IC50) lay within 50 to 250 nM.
Regarding `N=C(N)NCc1cccc(-c2ccnc3[nH]c4ccccc4c23)c1` [Compound I-5], the IC50 lay in the range of 250 to 1000 nM.
The result for `N=C(N)Nc1cccc(-c2ccnc3[nH]c4ccccc4c23)c1` [Compound I-4] reads 50 to 250 nM.
